What was measured:
[1] = tested on: HeLa, T-47D, WiDr, A549, HBL-100, and SW1573 cell lines; assay: Antiproliferative SRB assay, whole panel of human solid tumor cell lines; format: cell-based; conditions: for GI50: Homo sapiens, minimal to maximal GI50 across the cell lines tested, 48 h, SRB, read-out: GI50 values, range over all cell lines tested
Protocol: (§1) In vitro antiproliferative activity was evaluated using the protocol of the National Cancer Institute (NCI) after 48 h of drug exposure using the sulforhodamine B (SRB) assay.
(§2) The following human solid tumor cell lines were used in this study: HBL-100 (breast), HeLa (cervix), SW1573 (non-small cell lung), T-47D (breast), A549 (lung), and WiDr (colon). These cell lines were a kind gift from Prof. G. J. Peters (VU Medical Center, Amsterdam, The Netherlands). Cells were maintained in 25 cm^2 culture flasks in RPMI 1640 supplemented with 5% heat-inactivated fetal calf serum and 2 mM L-glutamine in a 37 °C, 5% CO2, 95% humidified air incubator. Exponentially growing cells were trypsinized and resuspended in antibiotic containing medium (100 units penicillin G and 0.1 mg of streptomycin per mL). Single cell suspensions displaying > 97% viability by trypan blue dye exclusion test were subsequently counted. After counting, dilutions were made to give the appropriate cell densities for inoculation onto 96-well microtiter plates. Cells were inoculated in a volume of 100 μL per well at densities of 5000 (WiDr and T-47D), and 2500 (A549, HeLa, SW1573 and HBL-100) cells per well, based on their doubling times.
(§3) Chemosensitivity tests were performed using the SRB assay of the NCI with slight modifications. Briefly, pure compounds were initially dissolved in DMSO at 400 times the desired final maximum test concentration. Control cells were exposed to an equivalent concentration of DMSO (0.25% v/v, negative control). Each agent was tested in triplicates at different dilutions in the range 1–100 μM. Drug treatment started on day 1 after plating. Drug incubation periods were 48 h, after which cells were precipitated with 25 μL of ice-cold 50% (w/v) trichloroacetic acid and fixed for 60 min at 4 °C. Then, the SRB assay was performed. The optical density (OD) of each well was measured at 530 nm, using BioTek’s PowerWave XS Absorbance Microplate Reader. Values were corrected for background OD from wells containing only culture medium. The percentage growth (PG) was calculated with respect to untreated control cells (C) at each level of drug concentrations based on the difference in OD at the start time (T0) and at the end of drug exposure (T), according to NCI formulas. Therefore, if T is greater than or equal to T0, the calculation is 100 × ((T − T0)/(C − T0)). If T is lower than T0, denoting cell death, the calculation is 100 × ((T − T0)/(T0)). The effect is defined as the growth percentage, where 50% growth inhibition (GI50) represents the concentration at which PG is +50. Based on these calculations, a PG value of 0 corresponds to the number of cells present at the beginning of drug exposure, while negative PG values denote net cell death.

[2] = tested on: HBL-100; assay: Antiproliferative SRB assay (NCI protocol), HBL-100; format: cell-based, human; conditions: for Selectivity index (SI) on tumor cells: CC50 splenocytes / GI50 HBL-100; for GI50: Homo sapiens, HBL-100 (breast), 48 h drug exposure, SRB, ± SD
Protocol: as §1, §2, §3

[3] = tested on: T-47D; assay: Antiproliferative SRB assay (NCI protocol), T-47D; format: cell-based, human; conditions: for Selectivity index (SI) on tumor cells: CC50 splenocytes / GI50 T-47D; for GI50: Homo sapiens, T47D, T-47D (breast), 48 h drug exposure, SRB, ± SD
Protocol: as §1, §2, §3

[4] = tested on: A549; assay: Antiproliferative SRB assay (NCI protocol), A549; format: cell-based, human; conditions: for GI50: Homo sapiens, A549 (lung), 48 h drug exposure, SRB, ± SD; for Selectivity index (SI) on tumor cells: CC50 splenocytes / GI50 A549
Protocol: as §1, §2, §3

[5] = tested on: Trypanosoma cruzi epimastigotes (RA strain); assay: In vitro anti-Trypanosoma cruzi assay ((3H) thymidine uptake); format: cell-based; conditions: for Selectivity Index on T. cruzi epimastigotes: CC50 splenocytes / IC50 epimastigotes; for IC50: Trypanosoma cruzi, epimastigotes (RA strain), ± SD
Protocol: Trypanosoma cruzi epimastigotes (RA strain, from discrete typing unit (DTU) VI) were grown in a biphasic medium. Cultures were maintained by weekly passages at 28 °C [18].
The growth inhibition of T. cruzi epimastigotes was evaluated by a (^3H) thymidine uptake assay as previously described. Natural sesquiterpenes and derivatives were evaluated at concentrations ranging from 1.5 to 50 µg/mL. Benznidazole (Active Pharmaceutical Ingredient) was used as positive control (Elea). The percentage of inhibition was calculated as 100 = {((cpm of treated parasites)/(cpm of untreated parasites)) × 100}.
Figure 5 Effect of the natural sesquiterpene tessaric acid (1), ilicic acid (2), and ilicic alcohol (3) and their derivatives on T. cruzi. Epimastigotes (RA strain) were cultured in the presence of the compounds (50–1.5 µg/mL). Determinations were performed by triplicate. The results are expressed as the mean ± SD. (A) Effect of tessaric acid and derivatives on epimastigotes; (B) Effect of ilicic acid and derivatives on epimastigotes; (C) Effect of ilicic alcohol and derivatives on epimastigotes.

[6] = tested on: HeLa; assay: Antiproliferative SRB assay (NCI protocol), HeLa; format: cell-based, human; conditions: for GI50: Homo sapiens, HeLa (cervix), 48 h drug exposure, SRB, ± SD; for Selectivity index (SI) on tumor cells: CC50 splenocytes / GI50 HeLa
Protocol: as §1, §2, §3

[7] = tested on: SW1573; assay: Antiproliferative SRB assay (NCI protocol), SW1573; format: cell-based, human; conditions: for Selectivity index (SI) on tumor cells: CC50 splenocytes / GI50 SW1573; for GI50: Homo sapiens, SW1573 (non-small cell lung), 48 h drug exposure, SRB, ± SD
Protocol: as §1, §2, §3

[8] = tested on: WiDr; assay: Antiproliferative SRB assay (NCI protocol), WiDr; format: cell-based, human; conditions: for Selectivity index (SI) on tumor cells: CC50 splenocytes / GI50 WiDr; for GI50: Homo sapiens, WiDr (colon), 48 h drug exposure, SRB, ± SD
Protocol: as §1, §2, §3

[9] = Cytotoxicity on primary cell culture (flow cytometry, PI); format: cell-based; conditions: Balb/c, mouse, primary splenocytes (spleen cells), ± SD, read-out: Cytotoxic activity on spleen cells (CC50)
Protocol: The cytotoxicity of the natural sesquiterpenes (1–3) and derivatives (4–19) was determined on primary cell cultures (splenocytes obtained from Balb/c mouse). […] Derivatives of tessaric acid have shown an improvement in CC50 values in comparison with the natural sesquiterpene 1. […] All the derivatives synthesized from alcohol ilicic (compounds 10–19) were more toxic to mammalian cells than the natural compound (3).
The cytotoxicity of the compounds was evaluated on splenocytes obtained from Balb/c mouse (1.5 × 10^5) and incubated with different drug dilutions (5–200 μg/mL) as previously described. Cell death was determined by flow cytometry using a BD FACSaria II cytometer. Cells incubated only with drug vehicle were used as 100% viability control, and death percentage was calculated according to the following formula: Death%=1−(%PI^−cells)drug−treated/(%PI^−cells)100% viability control × 100
The concentration capable of causing 50% cell death (CC50) was determined using a non-linear regression approach.

Compound	GI50 [1] [µM]	IC50 [5] [µM]	Selectivity index (SI) on tumor cells [2]	GI50 [2] [µM]	Selectivity index (SI) on tumor cells [3]	GI50 [3] [µM]	GI50 [4] [µM]	Selectivity Index on T. cruzi epimastigotes [5]	GI50 [6] [µM]	Selectivity index (SI) on tumor cells [7]	GI50 [7] [µM]	Selectivity index (SI) on tumor cells [8]	GI50 [8] [µM]	CC50 [9] [µM]	Selectivity index (SI) on tumor cells [4]	Selectivity index (SI) on tumor cells [6]	Selectivity index (IS) values, over the tumor cell lines evaluated ([1]; CC50 splenocytes / GI50 tumor cells, across cell lines)
C=C(C(=O)N(c1ccccc1)C(C)(C)C(=O)NCc1ccccc1)C1CCC2(C)CCCC(C)(O)C2C1 (stereo not drawn) [Compound 12]	17 to 64	8	3.2	20	3.2	20	22	8.0	17	2.4	27	2.7	24	64.3	2.9	3.8	–
C=C(C(=O)N(c1ccccc1)C(C)(C)C(=O)NCc1ccccc1)[C@@H]1CCC2=CC(=O)C[C@H](C)[C@@]2(C)C1 [Compound 6]	17 to 64	> 100	1.7	61	3.5	30	33	–	36	2.6	40	2.4	44	104	3.1	2.9	–
C=C(C(=O)N(c1ccccc1)C(C)(C)C(=O)NC1CCCCC1)C1CCC2(C)CCCC(C)(O)C2C1 (stereo not drawn) [Compound 14]	17 to 64	> 101	–	20	>17	23	22	–	17	–	27	–	20	> 405	>18.4	>24	greater than 15
C=C(C(=O)N(c1ccccc1)C(C)(C)C(=O)NC1CCCCC1)[C@@H]1CCC2=CC(=O)C[C@H](C)[C@@]2(C)C1 [Compound 8]	17 to 64	63.2	0.5	37	0.7	27	27	0.3	31	0.7	30	0.7	30	19.8	0.7	0.6	–
C=C(C(=O)N(Cc1ccccc1)C(C)(C)C(=O)NC1CCCCC1)[C@@H]1CCC2=CC(=O)C[C@H](C)[C@@]2(C)C1 [Compound 9]	17 to 64	45.1	1.6	47	3.6	21	28	1.7	24	2.6	30	2.0	39	76.5	2.7	3.2	–
C=C(C(=O)N(c1ccccc1)C(C)(C)C(=O)NC(C)(C)C)C1CCC2(C)CCCC(C)(O)C2C1 (stereo not drawn) [Compound 10]	17 to 64	19.6	1.2	64	2.2	36	31	4.0	37	1.6	50	1.7	45	78.2	2.5	2.1	–

Second part, led by results:

GI50 [1] [µM]	IC50 [5] [µM]	Compound	Selectivity index (SI) on tumor cells [2]	GI50 [2] [µM]	Selectivity index (SI) on tumor cells [3]	GI50 [3] [µM]	GI50 [4] [µM]	Selectivity Index on T. cruzi epimastigotes [5]	GI50 [6] [µM]	Selectivity index (SI) on tumor cells [7]	GI50 [7] [µM]	Selectivity index (SI) on tumor cells [8]	GI50 [8] [µM]	CC50 [9] [µM]	Selectivity index (SI) on tumor cells [4]	Selectivity index (SI) on tumor cells [6]	Selectivity index (IS) values, over the tumor cell lines evaluated ([1]; CC50 splenocytes / GI50 tumor cells, across cell lines)
5.3 to 14	22.4	C=C(C(=O)N(Cc1ccccc1)C(C)(C)C(=O)NC1CCCCC1)C1CCC2(C)CCCC(C)(O)C2C1 (stereo not drawn) [Compound 15]	1.5	19	1.7	19	13	1.0	14	1.5	17	1.7	18	21.5	–	–	–
17 to 64	26.1	C=C(C(=O)N(Cc1ccccc1)C(C)(C)C(=O)NC(C)(C)C)C1CCC2(C)CCCC(C)(O)C2C1 (stereo not drawn) [Compound 11]	10.1	33	14.5	23	20	12.6	19	10.1	33	11.5	29	334	16.7	17.6	–
5.3 to 14	59.6	C=C(C(=O)N(Cc1ccccc1)C(C)(C)C(=O)NCc1ccccc1)C1CCC2(C)CCCC(C)(O)C2C1 (stereo not drawn) [Compound 13]	2.1	13	2.5	11	5.3	0.5	8	2.5	11	2.5	11	27.4	5.2	3.4	–

Reference: PMC9143450, “Oxonitrogenated Derivatives of Eremophilans and Eudesmans: Antiproliferative and Anti-Trypanosoma cruzi Activity” (Molecules, 2022)
